In PubChem BioAssay (NCI):
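Five compound concentrations were applied to cells in 96-well plates for 48 hours; endpoints were derived by simple linear interpolation of the resulting dose-response curve. TGI: total growth inhibition.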

Key:
Test in all cases: NCI-60 cell line screen, 48 h
RPMI-8226 leukemia = test system: RPMI-8226 leukemia
ACHN renal = test system: ACHN renal
OVCAR-3 ovarian = test system: OVCAR-3 ovarian
OVCAR-4 ovarian = test system: OVCAR-4 ovarian
MDA-MB-435 = test system: MDA-MB-435
NCI-H23 lung = test system: NCI-H23 lung
SW-620 colon = test system: SW-620 colon
COLO 205 colon = test system: COLO 205 colon
NCI-H460 lung = test system: NCI-H460 lung
CAKI-1 renal = test system: CAKI-1 renal
SF-268 CNS = test system: SF-268 CNS
MALME-3M melanoma = test system: MALME-3M melanoma
NCI-H226 lung = test system: NCI-H226 lung
MDA-N = test system: MDA-N
SK-MEL-28 melanoma = test system: SK-MEL-28 melanoma
A549 NSCLC = test system: A549 NSCLC
BT-549 breast = test system: BT-549 breast
OVCAR-8 ovarian = test system: OVCAR-8 ovarian
U251 CNS = test system: U251 CNS
HCT-116 colon = test system: HCT-116 colon
MCF7 breast = test system: MCF7 breast
A498 renal = test system: A498 renal
SF-539 CNS = test system: SF-539 CNS
T-47D breast = test system: T-47D breast
KM12 colon = test system: KM12 colon
HOP-62 NSCLC = test system: HOP-62 NSCLC
MOLT-4 leukemia = test system: MOLT-4 leukemia
SK-MEL-5 melanoma = test system: SK-MEL-5 melanoma
IGROV1 ovarian = test system: IGROV1 ovarian
HT29 colon = test system: HT29 colon
HCC-2998 colon = test system: HCC-2998 colon
CCRF-CEM leukemia = test system: CCRF-CEM leukemia
TK-10 renal = test system: TK-10 renal
K-562 leukemia = test system: K-562 leukemia
DU-145 prostate = test system: DU-145 prostate
SNB-75 CNS = test system: SNB-75 CNS
SF-295 CNS = test system: SF-295 CNS
LOX IMVI melanoma = test system: LOX IMVI melanoma
786-0 renal = test system: 786-0 renal
SK-OV-3 ovarian = test system: SK-OV-3 ovarian
UO-31 renal = test system: UO-31 renal
HL-60(TB) leukemia = test system: HL-60(TB) leukemia
EKVX NSCLC = test system: EKVX NSCLC
SNB-19 CNS = test system: SNB-19 CNS
OVCAR-5 ovarian = test system: OVCAR-5 ovarian
NCI/ADR-RES ovarian = test system: NCI/ADR-RES ovarian
RXF 393 renal = test system: RXF 393 renal

SMILES: O=P(O)(CN1CCN(CP(=O)(O)c2ccccc2)CCN(CP(=O)(O)c2ccccc2)CC1)c1ccccc1
- TGI (RPMI-8226 leukemia): > 100 µM
- TGI (ACHN renal): > 100 µM
- TGI (OVCAR-3 ovarian): > 100 µM
- TGI (OVCAR-4 ovarian): > 100 µM
- TGI (MDA-MB-435): > 100 µM
- TGI (NCI-H23 lung): > 100 µM
- TGI (SW-620 colon): > 100 µM
- TGI (COLO 205 colon): > 100 µM
- TGI (NCI-H460 lung): > 100 µM
- TGI (CAKI-1 renal): > 100 µM
- TGI (SF-268 CNS): > 100 µM
- TGI (MALME-3M melanoma): > 100 µM
- TGI (NCI-H226 lung): > 100 µM
- TGI (MDA-N): > 100 µM
- TGI (SK-MEL-28 melanoma): > 100 µM
- TGI (A549 NSCLC): > 100 µM
- TGI (BT-549 breast): > 100 µM
- TGI (OVCAR-8 ovarian): > 100 µM
- TGI (U251 CNS): > 100 µM
- TGI (HCT-116 colon): > 100 µM
- TGI (MCF7 breast): > 100 µM
- TGI (A498 renal): 88.6 µM
- TGI (SF-539 CNS): > 100 µM
- TGI (T-47D breast): > 100 µM
- TGI (KM12 colon): > 100 µM
- TGI (HOP-62 NSCLC): > 100 µM
- TGI (MOLT-4 leukemia): > 100 µM
- TGI (SK-MEL-5 melanoma): > 100 µM
- TGI (IGROV1 ovarian): > 100 µM
- TGI (HT29 colon): > 100 µM
- TGI (HCC-2998 colon): > 100 µM
- TGI (CCRF-CEM leukemia): > 100 µM
- TGI (TK-10 renal): > 100 µM
- TGI (K-562 leukemia): > 100 µM
- TGI (DU-145 prostate): > 100 µM
- TGI (SNB-75 CNS): > 100 µM
- TGI (SF-295 CNS): > 100 µM
- TGI (LOX IMVI melanoma): > 100 µM
- TGI (786-0 renal): > 100 µM
- TGI (SK-OV-3 ovarian): > 100 µM
- TGI (UO-31 renal): > 100 µM
- TGI (HL-60(TB) leukemia): > 100 µM
- TGI (EKVX NSCLC): > 100 µM
- TGI (SNB-19 CNS): > 100 µM
- TGI (OVCAR-5 ovarian): > 100 µM
- TGI (NCI/ADR-RES ovarian): > 100 µM
- TGI (RXF 393 renal): > 100 µM
